The values below are quoted from earlier work in patent US20240366562A1, “GYNECOMASTIA AND/OR MASTALGIA TREATMENT” (priority 2021, published 2024).

The conditions of series [1]: women taking Tamoxifen.
For series [2] the following is noted: human subjects who ingested I3C.
In another series the target is T1, estrogen receptor (Homo sapiens, UniProt P03372).
T1 sequence (P03372 1-595): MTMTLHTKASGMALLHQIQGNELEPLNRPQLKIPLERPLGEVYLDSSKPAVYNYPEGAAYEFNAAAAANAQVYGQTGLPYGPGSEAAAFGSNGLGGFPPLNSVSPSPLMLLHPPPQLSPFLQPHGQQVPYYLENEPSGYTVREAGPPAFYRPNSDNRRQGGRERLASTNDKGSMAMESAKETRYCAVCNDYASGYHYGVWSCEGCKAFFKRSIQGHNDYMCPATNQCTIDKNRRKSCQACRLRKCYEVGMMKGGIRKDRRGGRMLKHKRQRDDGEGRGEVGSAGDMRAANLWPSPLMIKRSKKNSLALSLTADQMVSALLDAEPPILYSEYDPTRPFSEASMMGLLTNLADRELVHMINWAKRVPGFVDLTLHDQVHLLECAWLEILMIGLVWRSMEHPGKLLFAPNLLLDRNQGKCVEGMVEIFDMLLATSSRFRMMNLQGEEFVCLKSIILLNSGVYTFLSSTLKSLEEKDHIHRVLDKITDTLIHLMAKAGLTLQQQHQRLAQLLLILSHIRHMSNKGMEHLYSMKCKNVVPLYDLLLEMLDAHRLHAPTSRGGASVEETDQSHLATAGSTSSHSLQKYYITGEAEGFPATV

The test system of series [3] is estrogen-dependent human MCF-7 breast cancer cell line.
In a further series the test system is mammary tumors. To be noted: rodents.

With `CC/C(=C(\c1ccccc1)c1ccc(OCCN(C)C)cc1)c1ccccc1` [Tamoxifen, reference compound], in the series on estrogen pathway, the Competes with estrogen result was “yes”, the “Enhances 2HE1 excretion” value was “no”, the Inhibits estrogen synthesis entry was “no” and the Lowers circulating estrogen result is “no”. Moreover, in the series on estrogen pathway, the “Triggers degradation of ERα” value is reported as “no”.

On to `c1ccc2c(Cc3c[nH]c4ccccc34)c[nH]c2c1` [DIM, 3,3′-diindolylmethane], for which, in series [1], the Tamoxifen metabolites entry was “decreases in Tamoxifen metabolites”.

Take `OCc1c[nH]c2ccccc12` [Compound I3C, Indole-3-carbinole]: the Side effects result in series [2] is “no side effects”. The “Competition with estrogen for estrogen receptor binding” value on estrogen receptor was “fail to compete”. Besides, in series [3], the “Expression of CDK6” value was “down-regulates”. In addition, in the series on mammary tumors, the “Formation of spontaneous and carcinogen-induced mammary tumors” value is given as “reduce the formation”; the Side effects entry is on record as “no apparent side effects”. For the same compound, in the series with estrogen pathway, the Competes with estrogen entry was “no”, the “Enhances 2HE1 excretion” value was “yes”, the Inhibits estrogen synthesis result was “yes” and the Lowers circulating estrogen result was “yes”. Also, the “Triggers degradation of ERα” value in the series with estrogen pathway is recorded as “yes”.
